# Reference: BindingDB's records for doi:10.7270/Q2251GJ9 (The Scripps Research Institute Molecular Screening Center, 2007)
# Target: Sphingosine 1-phosphate receptor 1 (Homo sapiens, UniProt P21453)
# Assay: S1P1 receptor agonists, dose response, cell-based, agonist mode, 60K MLSMR set (AID 468)
# Conditions: not given
# Sequence of Sphingosine 1-phosphate receptor 1 (P21453 whole entry): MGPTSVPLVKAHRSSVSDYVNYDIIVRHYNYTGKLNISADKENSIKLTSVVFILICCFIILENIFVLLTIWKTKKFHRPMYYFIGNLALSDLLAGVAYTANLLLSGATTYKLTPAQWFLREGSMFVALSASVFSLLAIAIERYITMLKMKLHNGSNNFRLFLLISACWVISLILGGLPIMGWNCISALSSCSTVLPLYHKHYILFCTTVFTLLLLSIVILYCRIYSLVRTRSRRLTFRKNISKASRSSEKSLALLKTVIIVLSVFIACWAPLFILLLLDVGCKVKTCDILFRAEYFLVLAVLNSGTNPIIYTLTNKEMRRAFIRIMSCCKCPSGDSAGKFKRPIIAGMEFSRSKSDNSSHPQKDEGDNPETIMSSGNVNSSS
row,SMILES,EC50
1,O=C(c1ccc(Cl)s1)N1CCN(c2nc3ccccc3s2)CC1 [MLS000100900],> 30 µM
2,Cc1nc2ccc3nc(NC(=O)C4COc5ccccc5O4)sc3c2s1 (configuration not stated) [MLS000100909],4.9 µM
3,CCc1nnc(NC(=O)C2CCCCC2)s1 [MLS000104554],> 95 µM
4,CC(=O)Oc1ccc(-n2c(O)c3c(c2O)C2(C)C=CC3(C)O2)cc1 [MLS000107813],11.8 µM
5,COc1ccc(NC(=O)c2cnn3c(C(F)(F)F)cc(-c4ccco4)nc23)cc1OC [MLS000109325],> 95 µM
6,Cc1cc2nc(-c3ccc(NC(=O)C(C)C)cc3)oc2cc1C [MLS000109473],3.04 µM
7,COc1ccc(CN=O)cc1COc1ccc(NC(C)=O)cc1 [MLS000111933],> 95 µM
8,COC(=O)Cc1sc(=O)[nH]c1Nc1ccccc1 [MLS000111966],> 95 µM
9,Cc1cc(C=Nn2cnnc2)c(C)n1-c1ccc(OCc2ccc(F)cc2)cc1 [MLS000112167],0.552 µM
10,Cc1cc(C=Nn2cnnc2)c(C)n1-c1ccc(OCc2ccccc2F)cc1 [MLS000112180],1.08 µM
11,CC(C)(C)SCCNS(=O)(=O)c1ccccc1 [MLS000112230],> 95 µM
12,COc1ccc(-c2nc(-c3ccc(NC(=O)c4ccncc4)cc3)no2)cc1OC [MLS000115086],0.946 µM
13,O=C(Nc1c(F)cc(F)cc1Br)c1cc(-c2ccc(O)cc2)on1 [MLS000116264],2.37 µM
14,CCCc1cc(C(=O)Nc2sc(C)c(CC)c2C#N)no1 [MLS000116385],3.73 µM
15,CCCc1cc(C(=O)Nc2sc3c(c2C#N)CCC3)no1 [MLS000116386],> 95 µM
16,CC(C)Cc1cc(C(=O)Nc2sc3c(c2C#N)CCCC3)no1 [MLS000116410],> 10 µM
17,Cc1nn(Cc2ccc(Cl)c(Cl)c2)c(C)c1NC(=O)c1cc(CC(C)C)on1 [MLS000116412],9.16 µM
18,Cc1noc(C)c1S(=O)(=O)N(CC(=O)Nc1ccc2c(c1)OCO2)c1ccc(C(C)C)cc1 [MLS000117405],> 95 µM
19,Cc1nc2ccccc2c2oc(C(=O)NCC3COc4ccccc4O3)cc12 (configuration not stated) [MLS000118430],8.06 µM
20,COc1ccc(CNC(=O)c2cc3c(C)nc4ccccc4c3o2)c(OC)c1 [MLS000118441],4.2 µM
21,Cc1csc(NC(=O)C(Cc2ccccc2)n2cccc2)n1 (configuration not stated) [MLS000119019],2.77 µM
22,O=C(Nc1ncc(Br)s1)C(Cc1ccccc1)n1cccc1 (configuration not stated) [MLS000119027],2.23 µM
23,CCSc1nnc(NC(=O)C(Cc2ccccc2)n2cccc2)s1 (configuration not stated) [MLS000119034],> 30 µM
24,"Cc1ccc(-c2csc(N3CCC(NS(=O)(=O)c4ccc5c(c4)OCCO5)CC3)n2)cc1 [N-[1-[4-(4-methylphenyl)-1,3-thiazol-2-yl]piperidin-4-yl]-2,3-dihydro-1,4-benzodioxine-6-sulfonamide]",1.65 µM

row,SMILES,EC50
1,"CCC(C)c1ccc2oc(-c3ccc(NC(=O)c4nnc[nH]4)cc3)nc2c1 (configuration not stated) [N-[4-(5-sec-butyl-1,3-benzoxazol-2-yl)phenyl]-1H-1,2,4-triazole-3-carboxamide]",> 10 µM
2,c1ccc(CNc2ncnc3ccccc23)cc1 [N-benzylquinazolin-4-amine],4.81 µM
3,Clc1ccc(CCNc2[nH]cnc3ncnc2-3)cc1 [SMR000017624],9.86 µM
4,CC1Cc2ccccc2N1c1ncnc2nc[nH]c12 (configuration not stated) [SMR000017649],3.78 µM
5,O=S1(=O)C=C(Sc2nc3cc(Cl)ccc3o2)c2ccccc21 [SMR000019512],> 30 µM
6,CCCc1ccc(Oc2c[nH]nc2-c2ccc(O)c(C)c2O)cc1 [SMR000024172],12.9 µM
7,Cc1oc(-c2ccccc2)nc1Cn1cccc1C1=NC(c2ccccc2)CO1 (configuration not stated) [SMR000026251],0.922 µM
8,c1ccc2c(c1)CCN(c1ncnc3c1[nH]c1ccccc13)C2 [SMR000039631],1.19 µM
9,CCC(NC(C)c1ccccc1)=C1C(=O)N(C)C(=O)N(C)C1=O (configuration not stated) [SMR000043429],13.6 µM
10,Cc1ccccc1CS(=O)(=O)c1nnc([C@H](CC(C)C)NC(=O)OC(C)(C)C)o1 [SMR000044673],7.51 µM
11,Cc1ccc2c(c1)[nH]c1c(N3CCN(Cc4ccccc4)CC3)ncnc12 [SMR000044826],3.27 µM
12,COC(=O)CS(=O)(=O)c1nnc([C@H](Cc2ccccc2)NC(=O)OC(C)(C)C)o1 [SMR000046685],6.99 µM
13,CC(C)(C)OC(=O)N[C@@H](Cc1ccccc1)c1nnc(S(=O)(=O)Cc2ccccc2)o1 [SMR000047857],4.1 µM
14,CCc1cc(-c2n[nH]cc2-c2ccc3c(c2)OCO3)c(O)cc1O [SMR000060132],6 µM
15,Cc1cc(C(=O)CSc2nnc(-c3cccnc3)n2-c2ccccc2F)c(C)n1C [SMR000064090],0.817 µM
16,Clc1ccc(-n2nnnc2Sc2ncnc3sccc23)cc1 [SMR000066808],6.39 µM
17,Cc1ccccc1OCCCCc1c(C)n[nH]c1C [SMR000103095],6.74 µM
18,COc1ccccc1OCCCCCc1c(C)n[nH]c1C [SMR000103101],9.84 µM
19,Cc1cccc(OCCCCc2c(C)n[nH]c2C)c1C [SMR000103133],4.96 µM
20,CCn1c(-c2cccc(Cl)c2)n[nH]c1=S [SMR000104244],> 95 µM
21,CC1(C)CC(=O)C(=CNc2ccc3[nH]ncc3c2)C(=O)C1 [SMR000111453],5.07 µM
22,"CN=C(NC#N)SCC(=O)c1ccc(Cl)cc1Cl [[2-(2,4-dichlorophenyl)-2-oxidanylidene-ethyl] N-cyano-N'-methyl-carbamimidothioate]",4.55 µM
23,"CC(C)(C)OC(=O)N[C@@H](Cc1ccccc1)c1nnc(S(=O)(=O)Cc2cccc(F)c2)o1 [tert-butyl N-[(1S)-1-[5-[(3-fluorophenyl)methylsulfonyl]-1,3,4-oxadiazol-2-yl]-2-phenylethyl]carbamate]",8.51 µM

# Same assay, conditions: inactive by the depositor's call
row,SMILES,EC50
1,CCCOc1ccc(S(=O)(=O)NCc2ccc(OC)cc2)cc1 [MLS000104592],23.1 µM
2,CC(=O)Nc1ccc(S(=O)(=O)N2CCN(c3cccc(C)c3C)CC2)cc1 [MLS000115810],15.4 µM
3,CSc1ccc(S(=O)(=O)Nc2ccc3c(c2)OCCO3)cc1 [MLS000115922],13.6 µM
4,CC(C)Cc1cc(C(=O)Nc2cc(Br)ccc2O)no1 [MLS000116399],20.2 µM
5,CCCOC(=O)c1[nH]c2c(c1C)C(=O)CC(c1cc(OC)c(OC)c(OC)c1)C2 (configuration not stated) [MLS000116504],10.9 µM
6,CCC(C)OC(=O)c1[nH]c2c(c1C)C(=O)CC(c1ccc(N(C)C)cc1)C2 (configuration not stated) [MLS000116530],18.7 µM
7,O=C(C1CCN(S(=O)(=O)c2cccc3cccnc23)CC1)N1CCN(c2ccc(Cl)cc2)CC1 [MLS000116819],17.3 µM
8,Cc1noc(C)c1S(=O)(=O)N(CC(=O)Nc1ccc2c(c1)OCCO2)c1ccc(C(C)C)cc1 [MLS000117406],14.2 µM
9,Cc1ccc(Cl)cc1N1CCN(C(=O)C2CCN(c3nnc(-n4cccc4)s3)CC2)CC1 [MLS000119702],34.4 µM
10,COc1ccc(S(=O)(=O)Cc2ccc(C(=O)N3CCN(c4cccc(C)c4C)CC3)o2)cc1 [MLS000120226],14 µM
11,COc1ccc(S(=O)(=O)Cc2ccc(C(=O)N3CCN(c4ccc(Cl)cc4)CC3)o2)cc1 [MLS000120227],13.7 µM
12,Cc1cccc(N2CCN(C(=O)C3CCCN(S(=O)(=O)c4cccc5cccnc45)C3)CC2)c1C (configuration not stated) [MLS000120299],16.3 µM
13,"COc1ccc2c(c1)-c1nc(NC(=O)c3cccs3)sc1CC2 [N-(8-methoxy-4,5-dihydrobenzo[e][1,3]benzothiazol-2-yl)-2-thiophenecarboxamide]",17.3 µM
14,C=CCOC(=O)c1[nH]c2c(c1C)C(=O)CC(c1cc(OC)c(OC)c(OC)c1)C2 (configuration not stated) [SMR000093465],10.7 µM
15,Cc1cccc(OCCCCc2c(C)n[nH]c2C)c1 [SMR000103102],11.5 µM
